The values that follow come from PubChem BioAssay (NCI).

Some test systems named below: NCI-H522 lung; OVCAR-5 ovarian; UACC-62 melanoma; SK-MEL-5 melanoma; T-47D breast; IGROV1 ovarian; COLO 205 colon; NCI/ADR-RES ovarian; OVCAR-8 ovarian; SR leukemia.
What all share (test): NCI anticancer screen, dose series, 48 h

Where “and” joins values, the source holds several entries; their conditions need not be identical. Equal entries are not always repeated.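 In this assay, cells in 96-well plates receive the compound at five concentrations for 48 hours. Endpoints are linearly interpolated between the surrounding concentrations. Abbreviation: GI50, concentration required for 50% inhibition of growth. Definition used: TGI = concentration required for complete inhibition of growth.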 A value given as a limit tells only on which side of the number the result lay.

Take `Cn1cnc2c(F)c(Nc3ccc(Br)cc3Cl)c(C(=O)NOCCO)cc21`: the GI50 in the assay on NCI-H522 lung is > 10 µM and 61.3 µM; in the assay with UACC-62 melanoma, 0.0123 µM and 0.0212 µM; in the assay with SK-MEL-5 melanoma, 2.4 µM and 0.95 µM; with T-47D breast it was > 10 µM and 82.4 µM; in the assay on IGROV1 ovarian, 0.264 µM and 1.34 µM; in the assay with COLO 205 colon, 0.0211 µM and < 0.0137 µM. Further, the GI50 in the assay with NCI/ADR-RES ovarian was greater than 100 µM; in the assay with OVCAR-8 ovarian, > 10 µM and 67.9 µM; in the assay with SR leukemia, > 10 µM and 5.85 µM. In addition, the TGI in the assay with NCI-H522 lung was greater than 100 µM; with OVCAR-5 ovarian, greater than 100 µM; in the assay with SK-MEL-5 melanoma, greater than 100 µM; in the assay on T-47D breast, greater than 100 µM; with IGROV1 ovarian it was greater than 100 µM; in the assay with COLO 205 colon, greater than 15.1 µM. Besides, the figures for the TGI with NCI/ADR-RES ovarian, with OVCAR-8 ovarian and in the assay with SR leukemia were greater than 100 µM, greater than 100 µM and greater than 33.8 µM, respectively.
As to `Nc1nc(-n2cccn2)nc(-n2cccn2)c1Br`, the GI50 in the assay with NCI-H522 lung, in the assay on OVCAR-5 ovarian, in the assay on UACC-62 melanoma, with SK-MEL-5 melanoma, in the assay on T-47D breast and with IGROV1 ovarian was greater than 100 µM in each case. Besides, the GI50 in the assay on COLO 205 colon, in the assay with NCI/ADR-RES ovarian, in the assay on OVCAR-8 ovarian and with SR leukemia was greater than 100 µM in each case. Moreover, the TGI with NCI-H522 lung, in the assay with OVCAR-5 ovarian, with UACC-62 melanoma, in the assay with SK-MEL-5 melanoma, in the assay on T-47D breast and in the assay on IGROV1 ovarian was greater than 100 µM in each case. In addition, the TGI with COLO 205 colon, in the assay on NCI/ADR-RES ovarian, in the assay on OVCAR-8 ovarian and in the assay with SR leukemia was greater than 100 µM in each case.
For the compound `CCOC(=O)C1CCC/C1=N\N=C(N)N` (configuration not stated) (tested in a mixture with another compound), the TGI in the assay on NCI-H522 lung, in the assay on OVCAR-5 ovarian, with UACC-62 melanoma, in the assay with SK-MEL-5 melanoma, in the assay on T-47D breast and in the assay on IGROV1 ovarian was greater than 100 µM in each case. Also, the TGI in the assay with COLO 205 colon, with NCI/ADR-RES ovarian, in the assay on OVCAR-8 ovarian and in the assay with SR leukemia was greater than 100 µM in each case.
Turning to `COC(=O)c1c2c(c(C)[n+]([O-])c1C)C(=O)C=C(NCc1ccc(Cl)cc1)C2=O`, the GI50 is 0.508 µM in the assay with NCI-H522 lung; 1.29 µM in the assay with OVCAR-5 ovarian; 0.046 µM in the assay on UACC-62 melanoma; 0.176 µM with SK-MEL-5 melanoma; 0.151 µM in the assay on T-47D breast; 0.346 µM with IGROV1 ovarian. For the same compound, the GI50 is 0.278 µM in the assay on COLO 205 colon, 0.31 µM in the assay on NCI/ADR-RES ovarian, 0.296 µM in the assay with OVCAR-8 ovarian and 0.733 µM with SR leukemia. For the same compound, the TGI turned out to be 2.04 µM in the assay with NCI-H522 lung; 2.78 µM in the assay on OVCAR-5 ovarian; 1.02 µM in the assay on UACC-62 melanoma; 0.337 µM in the assay on SK-MEL-5 melanoma; 1.7 µM with T-47D breast; 1.82 µM in the assay on IGROV1 ovarian. In addition, the TGI in the assay with COLO 205 colon came out at 0.963 µM; with NCI/ADR-RES ovarian, 3.22 µM; with OVCAR-8 ovarian, 1.44 µM; in the assay on SR leukemia it was 7.91 µM.
In the case of `O=C(O)CC(Cc1ccc2c(c1)OCO2)C(=O)O` (configuration not stated), the TGI with NCI-H522 lung, with OVCAR-5 ovarian, in the assay with UACC-62 melanoma, in the assay on SK-MEL-5 melanoma, in the assay with T-47D breast and in the assay on IGROV1 ovarian was greater than 100 µM throughout. The TGI with COLO 205 colon, in the assay with NCI/ADR-RES ovarian, in the assay on OVCAR-8 ovarian and in the assay with SR leukemia was greater than 100 µM each time.
Regarding `COc1ncnc2c(NC3OC(CO)C(O)C3O)ncnc12` (configuration not stated), the TGI with NCI-H522 lung is greater than 100 µM; with OVCAR-5 ovarian it was greater than 35.6 µM; in the assay on UACC-62 melanoma, 6.66 µM; with SK-MEL-5 melanoma, greater than 39.8 µM; with T-47D breast, 7.22 µM; in the assay on IGROV1 ovarian, 3.82 µM. Moreover, the TGI in the assay on COLO 205 colon came to 7.54 µM; in the assay on NCI/ADR-RES ovarian it was 6.2 µM; with OVCAR-8 ovarian, 5.29 µM; in the assay on SR leukemia, 0.276 µM.
As to `CCN(CC)c1ccc(/C=N/NC(=O)c2ccc(Nc3ccnc(C(F)(F)F)c3)cc2)c(O)c1`, the GI50 in the assay on NCI-H522 lung is 0.293 µM; in the assay with OVCAR-5 ovarian, 0.38 µM; in the assay with UACC-62 melanoma, 0.229 µM; in the assay on SK-MEL-5 melanoma, 0.412 µM; in the assay on T-47D breast, 0.332 µM; in the assay on IGROV1 ovarian it was 0.158 µM. Besides, the GI50 in the assay on COLO 205 colon is 0.281 µM; in the assay on NCI/ADR-RES ovarian, 0.598 µM; in the assay with OVCAR-8 ovarian, 0.322 µM; in the assay with SR leukemia, 0.0862 µM. For the same compound, the TGI was 2.07 µM in the assay on NCI-H522 lung; 4.75 µM in the assay on OVCAR-5 ovarian; 0.898 µM in the assay on UACC-62 melanoma; 1.71 µM in the assay with SK-MEL-5 melanoma; 3.7 µM in the assay with T-47D breast; 1.09 µM in the assay on COLO 205 colon. The results for the TGI with NCI/ADR-RES ovarian, in the assay on OVCAR-8 ovarian and in the assay with SR leukemia were 17.6 µM, greater than 33 µM and 0.672 µM, respectively.
For the compound `CCCCCC(=O)N1c2ccccc2NC2=C(C(=O)CC(c3ccc(OC)c(OC)c3)C2)C1c1ccc(C(F)(F)F)cc1` (configuration not stated), the GI50 in the assay on NCI-H522 lung was 70.8 µM; in the assay on OVCAR-5 ovarian, greater than 100 µM; in the assay on UACC-62 melanoma it was 97.1 µM; in the assay on SK-MEL-5 melanoma it was 62.8 µM; in the assay on T-47D breast, greater than 100 µM; in the assay on IGROV1 ovarian, greater than 100 µM. Besides, the GI50 in the assay with COLO 205 colon, in the assay with NCI/ADR-RES ovarian, in the assay with OVCAR-8 ovarian and in the assay on SR leukemia was greater than 100 µM in each case. For the same compound, the TGI in the assay with NCI-H522 lung, in the assay with OVCAR-5 ovarian, in the assay with UACC-62 melanoma, in the assay with SK-MEL-5 melanoma, in the assay with T-47D breast and with IGROV1 ovarian was greater than 100 µM each time. Also, the TGI in the assay with COLO 205 colon, with NCI/ADR-RES ovarian, with OVCAR-8 ovarian and with SR leukemia was greater than 100 µM in each case.
Consider `CC1(C)OC2C(CO)OC(n3ccc(=O)[nH]c3=O)C2O1` (configuration not stated), for which the TGI with NCI-H522 lung, with OVCAR-5 ovarian, with UACC-62 melanoma, in the assay with SK-MEL-5 melanoma, in the assay on T-47D breast and with IGROV1 ovarian was greater than 100 µM each time. The TGI with COLO 205 colon, with NCI/ADR-RES ovarian, in the assay on OVCAR-8 ovarian and with SR leukemia was greater than 100 µM each time.
